Results on two molecules are retold here after article PMC12042413 (Cell chemical biology, 2025).

One experiment has as its target CDK9/Cyclin T1 (Homo sapiens, UniProt P50750). The experiment in a line: biochemical kinase IC50.
The next experiment deals with CDK9 (Homo sapiens, UniProt P50750). As to the kind of experiment: competition rescue of CDK9 degradation in MOLT-4 cells. It is filed as cell-based.
Chain of CDK9 (P50750 whole entry): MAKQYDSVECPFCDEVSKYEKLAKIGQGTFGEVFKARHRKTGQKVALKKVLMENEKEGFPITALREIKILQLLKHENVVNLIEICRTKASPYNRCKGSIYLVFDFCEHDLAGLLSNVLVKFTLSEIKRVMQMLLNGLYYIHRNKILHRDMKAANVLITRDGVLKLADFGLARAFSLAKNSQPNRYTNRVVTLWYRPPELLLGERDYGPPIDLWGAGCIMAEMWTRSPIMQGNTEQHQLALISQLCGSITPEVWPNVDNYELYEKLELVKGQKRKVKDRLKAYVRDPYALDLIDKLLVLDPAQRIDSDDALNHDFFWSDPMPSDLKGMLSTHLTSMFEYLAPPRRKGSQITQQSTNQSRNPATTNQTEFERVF

Chain of CDK9/Cyclin T1 (P50750 whole entry): as above
Chain of CDK9/Cyclin T1 (O60563 whole entry partner): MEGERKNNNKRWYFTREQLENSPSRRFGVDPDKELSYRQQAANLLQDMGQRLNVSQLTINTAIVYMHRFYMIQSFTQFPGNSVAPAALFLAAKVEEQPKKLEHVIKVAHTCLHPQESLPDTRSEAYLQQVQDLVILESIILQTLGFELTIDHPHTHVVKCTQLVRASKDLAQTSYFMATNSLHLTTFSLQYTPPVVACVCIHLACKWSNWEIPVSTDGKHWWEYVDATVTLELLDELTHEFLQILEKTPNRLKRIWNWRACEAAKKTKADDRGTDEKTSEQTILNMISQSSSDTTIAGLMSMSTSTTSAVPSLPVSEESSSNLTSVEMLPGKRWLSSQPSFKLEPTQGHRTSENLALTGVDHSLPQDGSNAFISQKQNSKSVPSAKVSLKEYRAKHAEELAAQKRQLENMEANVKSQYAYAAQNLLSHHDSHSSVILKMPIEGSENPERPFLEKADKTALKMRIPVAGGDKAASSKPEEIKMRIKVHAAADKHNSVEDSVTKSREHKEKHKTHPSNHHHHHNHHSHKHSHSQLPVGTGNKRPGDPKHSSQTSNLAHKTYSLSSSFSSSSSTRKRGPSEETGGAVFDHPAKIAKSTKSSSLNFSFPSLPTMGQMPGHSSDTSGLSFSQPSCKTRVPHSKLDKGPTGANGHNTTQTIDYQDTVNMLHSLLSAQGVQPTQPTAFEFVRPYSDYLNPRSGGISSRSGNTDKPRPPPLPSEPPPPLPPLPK

On to `CCCc1cc(N[C@@H]2CC[C@@H](NC(=O)c3ccc(CN4CCN(c5ccc6c(c5)CN(C5CCC(=O)NC5=O)C6=O)CC4)cc3)C2)n2nccc2n1` (stereo partly drawn) [KI-CDK9d-32, 4-((4-(2-(2,6-dioxopiperidin-3-yl)-1-oxoisoindolin-5-yl)piperazin-1-yl)methyl)-N-((1R,3R)-3-((5-propylpyrazolo[1,5-a]pyrimidin-7-yl)amino)cyclopentyl)benzamide], for which the half-inhibitory concentration (IC50) on CDK9/Cyclin T1 worked out at 3 nM. This counts as single-digit nanomolar.

Turning to `CCCc1cc(N[C@@H]2CC[C@@H](NC(=O)c3ccc(CN4CCN(c5ccc6c(c5)CN(C5CCC(=O)N(C)C5=O)C6=O)CC4)cc3)C2)n2nccc2n1` (stereo partly drawn) [KI-CDK9d-32N, 4-((4-(2-(1-methyl-2,6-dioxopiperidin-3-yl)-1-oxoisoindolin-5-yl)piperazin-1-yl)methyl)-N-((1R,3R)-3-((5-propylpyrazolo[1,5-a]pyrimidin-7-yl)amino)cyclopentyl)benzamide], the “competition rescue of CDK9 degradation in MOLT-4 cells (Western blot, 5 uM)” value at CDK9 is “rescued through co-treatments with excess KB-0742, pomalidomide, or KI-CDK9d-32N, a negative control PROTAC with impaired CRBN binding”.

The IC50 is the concentration that inhibits the measured activity by half. Read a low IC50 as greater potency in that assay.
